Active and inactive are the calls of the source. No cut-off for these calls is given here.
What was measured:
PC-3 = experiment: Antiproliferative activity against human PC3 cells after 48 hrs by SRB assay; format: functional, cell-based; conditions: PC-3, 48 h
MCF7 = experiment: Antiproliferative activity against human MCF7 cells after 48 hrs by SRB assay; format: functional, cell-based; conditions: MCF7, 48 h
SW-620 [1] = experiment: Antiproliferative activity against human SW620 cells at 30 uM after 48 hrs by SRB assay; format: functional, cell-based
NCI-H460 = experiment: Antiproliferative activity against human NCI-H460 cells after 48 hrs by SRB assay; format: functional, cell-based; conditions: NCI-H460, 48 h
[2] = target: T1, Histone deacetylase (Homo sapiens) (UniProt Q13547+O15379+Q9UBN7+Q92769+Q9UQL6+Q8WUI4+Q9BY41+Q96DB2+P56524+Q9UKV0+Q969S8); experiment: Inhibition of HDAC in human SW620 cells assessed as acetylated histone-H4 level at 1 uM after 24 hrs by Western blotting analysis; format: cell-based; conditions: SW-620
SW-620 [3] = experiment: Antiproliferative activity against human SW620 cells after 48 hrs by SRB assay; format: functional, cell-based; conditions: SW-620, 48 h
ASPC1 [4] = experiment: Antiproliferative activity against human AsPC1 cells after 48 hrs by SRB assay; format: functional, cell-based; conditions: ASPC1, 48 h
[5] = target: T1, Histone deacetylase (Homo sapiens); experiment: Inhibition of HDAC in human SW620 cells assessed as acetylated histone-H3 level at 1 uM after 24 hrs by Western blotting analysis; format: cell-based; conditions: SW-620
ASPC1 [6] = experiment: Ratio of SAHA IC50 to compound IC50 for human AsPC1 cells; format: functional
SW-620 [7] = experiment: Ratio of SAHA IC50 to compound IC50 for human SW620 cells; format: functional

SMILES | IC50 (PC-3) | IC50 (MCF7) | IC50 (NCI-H460) | inhibition [2] | IC50 (SW-620 [3]) | IC50 (ASPC1 [4]) | inhibition [5] | Activity (SW-620 [1]) | Ratio IC50 (ASPC1 [6]) | Ratio IC50 (SW-620 [7])
O=C(CCCCCCN1C(=O)/C(=N\O)c2cc([N+](=O)[O-])ccc21)NO | 19700 nM | 1340 nM | 7710 nM | inactive | 3390 nM | 4680 nM | inactive | Active |  | 
CO/N=C1/C(=O)N(CCCCCCC(=O)NO)c2ccc(Cl)cc21 | 2330 nM | 1560 nM | 760 nM | Active | 490 nM | 490 nM | Active | Active |  | 
O=C(CCCCCCN1C(=O)/C(=N\O)c2cccc(Cl)c21)NO | 1570 nM | 1740 nM | 1350 nM | Active | 1050 nM | 1820 nM | Active |  |  | 
CO/N=C1\C(=O)N(CCCCCCC(=O)NO)c2ccc([N+](=O)[O-])cc21 | 1690 nM | 940 nM | 14300 nM | inactive | 1350 nM | 840 nM | inactive | Active |  | 
O=C(CCCCCCN1C(=O)/C(=N\O)c2cc(Br)ccc21)NO | 2210 nM | 1770 nM | 970 nM | Active | 290 nM | 80 nM | Active | Active | 45 | 
CO/N=C1/C(=O)N(CCCCCCC(=O)NO)c2ccc(F)cc21 | 1150 nM | 2420 nM | 970 nM | Active | 1110 nM | 970 nM | Active | Active |  | 
O=C(CCCCCCN1C(=O)/C(=N\O)c2cc(F)ccc21)NO | 2730 nM | 1550 nM | 1500 nM | Active | 110 nM | 1720 nM | Active | Active |  | 30
CO/N=C1/C(=O)N(CCCCCCC(=O)NO)c2ccccc21 | 1670 nM | 1710 nM | 750 nM | Active | 730 nM | 1220 nM | Active | Active |  | 
CO/N=C1/C(=O)N(CCCCCCC(=O)NO)c2ccc(Br)cc21 | 8910 nM | 7790 nM | 2900 nM | Active | 2320 nM | 1680 nM | Active | Active |  | 

The next compounds have a lower IC50 (PC-3) than those just listed; values first:

IC50 (PC-3) | IC50 (MCF7) | IC50 (NCI-H460) | inhibition [2] | IC50 (SW-620 [3]) | IC50 (ASPC1 [4]) | inhibition [5] | SMILES | Activity (SW-620 [1]) | Ratio IC50 (ASPC1 [6]) | Ratio IC50 (SW-620 [7])
290 nM | 340 nM | 350 nM | Active | 260 nM | 630 nM | Active | CO/N=C1/C(=O)N(CCCCCCC(=O)NO)c2c(Cl)cccc21 |  |  | 
980 nM | 790 nM | 890 nM | Active | 640 nM | 1100 nM | Active | O=C(CCCCCCN1C(=O)/C(=N\O)c2ccccc21)NO | Active |  | 
620 nM | 1190 nM | 2090 nM | Active | 990 nM | 2440 nM | Active | Cc1ccc2c(c1)/C(=N/O)C(=O)N2CCCCCCC(=O)NO | Active |  | 
350 nM | 16700 nM | 1190 nM | inactive | 1070 nM | 5480 nM | inactive | CO/N=C1/C(=O)N(CCCCCCC(=O)NO)c2ccc(C)cc21 | Active |  | 
850 nM | 680 nM | 850 nM | Active | 650 nM | 1860 nM | Active | O=C(CCCCCCN1C(=O)/C(=N\O)c2cc(Cl)ccc21)NO | Active |  | 

Source: ChEMBL document CHEMBL3085752, “Novel isatin-based hydroxamic acids as histone deacetylase inhibitors and antitumor agents” (Eur J Med Chem, 2013)
